In US12662498B2 (priority 2017, dated 2026):

Test: ICH stability study of psilocybin batches (appearance, water content, purity, assay)

With CN(C)CCc1c[nH]c2cccc(OP(=O)(O)O)c12 [Batch 170231] the “Impurities by HPLC: RRT 1.62 (Psilocin)” value (T = 6 months, 2-8° C.) was 0.35%, the “Impurities by HPLC: RRT 1.70” value (T = 6 months, 2-8° C.) was “LT 0.05%” and the “Impurities by HPLC: line without printed RRT (after RRT0.69)” value (T = 6 months, 2-8° C.) was 0.07%. For the same molecule, the “Impurity at RRT 1.89” value (T = 6 months, 2-8° C.) was “LT 0.05%”, the “Impurity at RRT 2.45” value (T = 6 months, 2-8° C.) was “LT 0.05%” and the “Total Impurities” value (T = 6 months, 2-8° C.) was 0.80%. The “Water content by loss on drying” value (T = 6 months, 2-8° C.) was 0.06% ^w/w % w/w, the Appearance (T = 6 months, 25° C./60% RH) was “An off white solid” and the “Assay by HPLC (on a dry basis)” value (T = 6 months, 25° C./60% RH) was 98.04% ^w/w % w/w. The “Chemical Purity By HPLC” value (T = 6 months, 25° C./60% RH) was 99.19%, the “Impurities LT 0.05%” value (T = 6 months, 25° C./60% RH) was 0.34% and the “Impurities by HPLC: RRT0.69” value (T = 6 months, 25° C./60% RH) was 0.06%. For the same molecule, the “Impurities by HPLC: RRT 1.49” value (T = 6 months, 25° C./60% RH) was “LT 0.05%”, the “Impurities by HPLC: RRT 1.62 (Psilocin)” value (T = 6 months, 25° C./60% RH) was 0.34% and the “Impurities by HPLC: RRT 1.70” value (T = 6 months, 25° C./60% RH) was “LT 0.05%”. For the same molecule, the “Impurities by HPLC: line without printed RRT (after RRT0.69)” value (T = 6 months, 25° C./60% RH) was 0.07%, the “Impurity at RRT 1.89” value (T = 6 months, 25° C./60% RH) was “LT 0.05%” and the “Impurity at RRT 2.45” value (T = 6 months, 25° C./60% RH) was “LT 0.05%”. The “Total Impurities” value (T = 6 months, 25° C./60% RH) was 0.81%, the “Water content by loss on drying” value (T = 6 months, 25° C./60% RH) was 0.32% ^w/w % w/w and the Appearance (T = 6 months, 40° C./75% RH) was “An off white solid”. For the same molecule, the “Assay by HPLC (on a dry basis)” value (T = 6 months, 40° C./75% RH) was 100.10% ^w/w % w/w, the “Chemical Purity By HPLC” value (T = 6 months, 40° C./75% RH) was 99.12% and the “Impurities LT 0.05%” value (T = 6 months, 40° C./75% RH) was 0.36%. The “Impurities by HPLC: RRT0.69” value (T = 6 months, 40° C./75% RH) was 0.06%, the “Impurities by HPLC: RRT 1.49” value (T = 6 months, 40° C./75% RH) was “LT 0.05%” and the “Impurities by HPLC: RRT 1.62 (Psilocin)” value (T = 6 months, 40° C./75% RH) was 0.38%. For the same molecule, the “Impurities by HPLC: RRT 1.70” value (T = 6 months, 40° C./75% RH) was “LT 0.05%”, the “Impurities by HPLC: line without printed RRT (after RRT0.69)” value (T = 6 months, 40° C./75% RH) was 0.08% and the “Impurity at RRT 1.89” value (T = 6 months, 40° C./75% RH) was “LT 0.05%”. For the same molecule, the “Impurity at RRT 2.45” value (T = 6 months, 40° C./75% RH) was “LT 0.05%”, the “Total Impurities” value (T = 6 months, 40° C./75% RH) was 0.88% and the “Water content by loss on drying” value (T = 6 months, 40° C./75% RH) was 2.26% ^w/w % w/w. For the same molecule, the Appearance (T = 9 months, 2-8° C.) was “An off white solid”, the “Assay by HPLC (on a dry basis)” value (T = 9 months, 2-8° C.) was 97.53% ^w/w % w/w and the “Chemical Purity By HPLC” value (T = 9 months, 2-8° C.) was 99.16%. The “Impurities by HPLC: RRT0.69” value (T = 9 months, 2-8° C.) was “LT 0.05%”, the “Impurities by HPLC: RRT 1.49” value (T = 9 months, 2-8° C.) was 0.07% and the “Impurities by HPLC: RRT 1.62 (Psilocin)” value (T = 9 months, 2-8° C.) was 0.06%. The “Impurities by HPLC: RRT 1.70” value (T = 9 months, 2-8° C.) was 0.37%, the “Impurities by HPLC: line without printed RRT (after RRT0.69)” value (T = 9 months, 2-8° C.) was “LT 0.05%” and the “Impurity at RRT 1.89” value (T = 9 months, 2-8° C.) was “LT 0.05%”. The “Impurity at RRT 2.45” value (T = 9 months, 2-8° C.) was “LT 0.05%”, the “Total Impurities” value (T = 9 months, 2-8° C.) was 0.84% and the “Water content by loss on drying” value (T = 9 months, 2-8° C.) was 0.21% ^w/w % w/w. The Appearance (T = 9 months, 25° C./60% RH) was “An off white solid”, the “Assay by HPLC (on a dry basis)” value (T = 9 months, 25° C./60% RH) was 98.12% ^w/w % w/w and the “Chemical Purity By HPLC” value (T = 9 months, 25° C./60% RH) was 99.16%. The “Impurities by HPLC: RRT0.69” value (T = 9 months, 25° C./60% RH) was “LT 0.05%”, the “Impurities by HPLC: RRT 1.49” value (T = 9 months, 25° C./60% RH) was 0.05% and the “Impurities by HPLC: RRT 1.62 (Psilocin)” value (T = 9 months, 25° C./60% RH) was 0.06%. For the same molecule, the “Impurities by HPLC: RRT 1.70” value (T = 9 months, 25° C./60% RH) was 0.37%, the “Impurities by HPLC: line without printed RRT (after RRT0.69)” value (T = 9 months, 25° C./60% RH) was “LT 0.05%” and the “Impurity at RRT 1.89” value (T = 9 months, 25° C./60% RH) was “LT 0.05%”. The “Impurity at RRT 2.45” value (T = 9 months, 25° C./60% RH) was “LT 0.05%”, the “Total Impurities” value (T = 9 months, 25° C./60% RH) was 0.84% and the “Water content by loss on drying” value (T = 9 months, 25° C./60% RH) was 0.10% ^w/w % w/w. For the same molecule, the Appearance (T = 12 months, 2-8° C.) was “An off white solid”, the “Assay by HPLC (on a dry basis)” value (T = 12 months, 2-8° C.) was 99.63% ^w/w % w/w and the “Chemical Purity By HPLC” value (T = 12 months, 2-8° C.) was 99.25%. The “Impurities LT 0.05%” value (T = 12 months, 2-8° C.) was 0.38%, the “Impurities by HPLC: RRT0.69” value (T = 12 months, 2-8° C.) was “LT 0.05%” and the “Impurities by HPLC: RRT 1.49” value (T = 12 months, 2-8° C.) was “LT 0.05%”. For the same molecule, the “Impurities by HPLC: RRT 1.62 (Psilocin)” value (T = 12 months, 2-8° C.) was 0.37%, the “Impurities by HPLC: RRT 1.70” value (T = 12 months, 2-8° C.) was “LT 0.05%” and the “Impurity at RRT 1.89” value (T = 12 months, 2-8° C.) was “LT 0.05%”. For the same molecule, the “Impurity at RRT 2.45” value (T = 12 months, 2-8° C.) was “LT 0.05%”, the “Total Impurities” value (T = 12 months, 2-8° C.) was 0.75% and the “Water content by loss on drying” value (T = 12 months, 2-8° C.) was 0.49% ^w/w % w/w. The Appearance (T = 12 months, 25° C./60% RH) was “An off white solid”, the “Assay by HPLC (on a dry basis)” value (T = 12 months, 25° C./60% RH) was 98.97% ^w/w % w/w and the “Chemical Purity By HPLC” value (T = 12 months, 25° C./60% RH) was 99.25%. For the same molecule, the “Impurities LT 0.05%” value (T = 12 months, 25° C./60% RH) was 0.38%, the “Impurities by HPLC: RRT0.69” value (T = 12 months, 25° C./60% RH) was “LT 0.05%” and the “Impurities by HPLC: RRT 1.49” value (T = 12 months, 25° C./60% RH) was “LT 0.05%”. The “Impurities by HPLC: RRT 1.62 (Psilocin)” value (T = 12 months, 25° C./60% RH) was 0.37%, the “Impurities by HPLC: RRT 1.70” value (T = 12 months, 25° C./60% RH) was “LT 0.05%” and the “Impurity at RRT 2.45” value (T = 12 months, 25° C./60% RH) was “LT 0.05%”. For the same molecule, the “Total Impurities” value (T = 12 months, 25° C./60% RH) was 0.75% and the “Water content by loss on drying” value (T = 12 months, 25° C./60% RH) was 0.61% ^w/w % w/w.
